Reference: patent US9649313B2, “Use of ITK inhibitors for the treatment of cancer” (The University of North Carolina at Chapel Hill, priority 2012, dated 2017)

Experiments:
Test in all cases: cell-free kinase assay
Assay type in all cases: biochemical
AKT1 = molecular target: T1, AKT1 (Homo sapiens, UniProt P31749); conditions: single inhibitor concentration
T1 construct: purchased Carna Biosciences
Text: (§1) We investigated the potency and selectivity of BI 10N against 56 kinases using a cell-free assay (Table 8A).
(§2) The selectivity of this inhibitor was investigated by testing the potency of the inhibitor at two concentrations with 53 kinases by Carna Biosciences (MA) (Table 2).

AMPKα1/β1/γ1 = molecular target: T2, AMPKα1/β1/γ1 (Homo sapiens, UniProt Q13131); conditions: single inhibitor concentration
T2 construct: purchased Carna Biosciences
Text: as §1, §2

CDK2/CycA2 = molecular target: T3, CDK2/CycA2 (Homo sapiens, UniProt P24941); conditions: single inhibitor concentration
T3 construct: purchased Carna Biosciences
Text: as §1, §2

CHK1 = molecular target: T4, CHK1 (Homo sapiens, UniProt O14757); conditions: single inhibitor concentration
T4 construct: purchased Carna Biosciences
Text: as §1, §2

CSK = molecular target: T5, CSK (Homo sapiens, UniProt P41240); conditions: single inhibitor concentration
T5 construct: purchased Carna Biosciences
Text: as §1, §2

CaMK4 = molecular target: T6, CaMK4 (Homo sapiens, UniProt Q16566); conditions: single inhibitor concentration
T6 construct: purchased Carna Biosciences
T6 sequence (Q16566 whole entry): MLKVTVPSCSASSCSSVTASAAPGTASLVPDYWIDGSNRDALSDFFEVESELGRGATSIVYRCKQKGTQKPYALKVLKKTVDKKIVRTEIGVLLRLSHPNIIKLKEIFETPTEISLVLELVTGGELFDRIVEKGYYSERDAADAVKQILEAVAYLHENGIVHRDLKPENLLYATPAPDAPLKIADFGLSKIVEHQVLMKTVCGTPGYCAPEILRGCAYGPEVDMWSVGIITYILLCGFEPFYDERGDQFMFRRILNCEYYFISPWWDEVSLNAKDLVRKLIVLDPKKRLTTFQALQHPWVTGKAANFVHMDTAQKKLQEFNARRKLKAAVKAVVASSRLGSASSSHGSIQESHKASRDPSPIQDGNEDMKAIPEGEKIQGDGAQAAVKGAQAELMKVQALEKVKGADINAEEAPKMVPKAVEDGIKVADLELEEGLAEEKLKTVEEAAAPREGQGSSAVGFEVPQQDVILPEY
Text: as §1, §2

DYRK1B = molecular target: T7, DYRK1B (Homo sapiens, UniProt Q9Y463); conditions: single inhibitor concentration
T7 construct: purchased Carna Biosciences
Text: as §1, §2

EGFR = molecular target: T8, EGFR (Homo sapiens, UniProt P00533); conditions: single inhibitor concentration
T8 construct: purchased Carna Biosciences
Text: as §1, §2

GSK3β = molecular target: T9, GSK3β (Homo sapiens, UniProt P49841); conditions: single inhibitor concentration
T9 construct: purchased Carna Biosciences
Text: as §1, §2

IKKβ = molecular target: T10, IKKβ (Homo sapiens, UniProt O14920); conditions: single inhibitor concentration
T10 construct: purchased Carna Biosciences
Text: as §1, §2

KDR = molecular target: T11, KDR (Homo sapiens, UniProt P35968); conditions: single inhibitor concentration
T11 construct: purchased Carna Biosciences
T11 sequence (P35968 20-1356): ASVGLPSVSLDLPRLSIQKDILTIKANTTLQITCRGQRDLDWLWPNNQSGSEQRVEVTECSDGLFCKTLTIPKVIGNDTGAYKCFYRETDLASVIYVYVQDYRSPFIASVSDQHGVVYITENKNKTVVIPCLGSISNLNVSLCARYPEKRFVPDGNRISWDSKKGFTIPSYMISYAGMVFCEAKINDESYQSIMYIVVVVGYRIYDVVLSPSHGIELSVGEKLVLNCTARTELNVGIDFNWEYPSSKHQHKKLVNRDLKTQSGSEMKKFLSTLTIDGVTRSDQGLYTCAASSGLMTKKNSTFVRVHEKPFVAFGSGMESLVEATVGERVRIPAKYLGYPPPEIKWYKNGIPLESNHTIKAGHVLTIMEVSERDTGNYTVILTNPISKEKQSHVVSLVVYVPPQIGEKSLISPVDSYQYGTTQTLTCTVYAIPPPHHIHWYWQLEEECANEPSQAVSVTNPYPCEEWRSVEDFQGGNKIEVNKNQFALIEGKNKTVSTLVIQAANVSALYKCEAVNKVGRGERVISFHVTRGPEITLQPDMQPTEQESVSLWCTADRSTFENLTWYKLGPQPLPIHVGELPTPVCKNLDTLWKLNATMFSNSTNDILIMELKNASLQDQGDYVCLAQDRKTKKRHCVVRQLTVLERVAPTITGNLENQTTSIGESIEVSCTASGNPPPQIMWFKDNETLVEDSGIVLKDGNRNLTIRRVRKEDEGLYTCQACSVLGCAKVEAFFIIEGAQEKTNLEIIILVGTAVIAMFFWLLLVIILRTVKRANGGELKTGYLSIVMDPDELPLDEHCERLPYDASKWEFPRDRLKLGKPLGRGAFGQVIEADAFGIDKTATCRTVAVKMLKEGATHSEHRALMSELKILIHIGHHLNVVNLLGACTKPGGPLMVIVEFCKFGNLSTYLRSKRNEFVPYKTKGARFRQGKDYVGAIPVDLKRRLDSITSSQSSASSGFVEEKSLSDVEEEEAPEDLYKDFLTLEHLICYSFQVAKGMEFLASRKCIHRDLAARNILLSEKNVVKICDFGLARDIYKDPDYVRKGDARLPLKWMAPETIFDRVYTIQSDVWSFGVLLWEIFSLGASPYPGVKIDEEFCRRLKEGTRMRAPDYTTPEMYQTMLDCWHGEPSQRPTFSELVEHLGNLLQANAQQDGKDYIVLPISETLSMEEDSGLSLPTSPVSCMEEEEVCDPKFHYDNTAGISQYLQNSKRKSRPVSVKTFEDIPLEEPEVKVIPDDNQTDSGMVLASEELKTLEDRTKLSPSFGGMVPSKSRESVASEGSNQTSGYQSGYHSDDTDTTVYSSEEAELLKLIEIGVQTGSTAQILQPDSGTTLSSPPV
Text: as §1, §2

LYNa = molecular target: T12, LYNa (Homo sapiens, UniProt P07948); conditions: ATP concentration at approximately the Km for ATP
T12 construct: purchased Carna Biosciences
Text: as §1, §2

LYNb = molecular target: T13, LYNb (Homo sapiens, UniProt P07948); conditions: ATP concentration at approximately the Km for ATP
T13 construct: purchased Carna Biosciences
Text: as §1, §2

PBK = molecular target: T14, PBK (Homo sapiens, UniProt Q96KB5); conditions: single inhibitor concentration
T14 construct: purchased Carna Biosciences
Text: as §1, §2

PDGFRα = molecular target: T15, PDGFRα (Homo sapiens, UniProt P16234)
T15 construct: purchased Carna Biosciences
T15 sequence (P16234 24-1089): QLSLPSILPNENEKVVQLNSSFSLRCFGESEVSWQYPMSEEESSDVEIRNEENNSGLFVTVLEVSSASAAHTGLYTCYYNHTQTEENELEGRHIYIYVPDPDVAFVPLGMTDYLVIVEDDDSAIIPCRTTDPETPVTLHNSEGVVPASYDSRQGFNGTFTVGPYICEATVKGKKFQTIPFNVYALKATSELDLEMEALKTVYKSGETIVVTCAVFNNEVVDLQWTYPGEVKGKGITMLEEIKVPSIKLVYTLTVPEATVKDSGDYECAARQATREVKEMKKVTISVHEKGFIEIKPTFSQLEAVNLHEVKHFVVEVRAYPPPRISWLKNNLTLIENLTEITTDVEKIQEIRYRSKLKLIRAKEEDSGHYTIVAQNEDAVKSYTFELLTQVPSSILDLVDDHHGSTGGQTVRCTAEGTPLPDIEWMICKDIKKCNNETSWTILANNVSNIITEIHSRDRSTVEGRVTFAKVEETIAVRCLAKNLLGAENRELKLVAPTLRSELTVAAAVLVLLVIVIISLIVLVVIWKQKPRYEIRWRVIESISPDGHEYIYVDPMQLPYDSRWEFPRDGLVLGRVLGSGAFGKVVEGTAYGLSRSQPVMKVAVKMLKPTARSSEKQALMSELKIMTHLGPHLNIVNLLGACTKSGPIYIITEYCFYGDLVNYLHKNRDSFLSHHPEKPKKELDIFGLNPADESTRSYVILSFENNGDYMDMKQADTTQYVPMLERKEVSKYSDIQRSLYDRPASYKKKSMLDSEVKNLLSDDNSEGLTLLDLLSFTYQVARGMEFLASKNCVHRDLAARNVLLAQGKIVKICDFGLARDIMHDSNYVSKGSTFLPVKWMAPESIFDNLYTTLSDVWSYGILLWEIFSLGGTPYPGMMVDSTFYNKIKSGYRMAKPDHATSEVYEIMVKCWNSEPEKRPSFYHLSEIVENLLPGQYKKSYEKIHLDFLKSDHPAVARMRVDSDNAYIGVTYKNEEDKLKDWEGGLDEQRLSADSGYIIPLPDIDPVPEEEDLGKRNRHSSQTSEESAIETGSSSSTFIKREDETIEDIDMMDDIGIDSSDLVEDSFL
Text: as §1, §2

PIM1 = molecular target: T16, PIM1 (Homo sapiens, UniProt P11309); conditions: single inhibitor concentration
T16 construct: purchased Carna Biosciences
Text: as §1, §2

PKD2 = molecular target: T17, PKD2 (Homo sapiens, UniProt Q9BZL6); conditions: single inhibitor concentration
T17 construct: purchased Carna Biosciences
Text: as §1, §2

ROCK1 = molecular target: T18, ROCK1 (Homo sapiens, UniProt Q13464); conditions: single inhibitor concentration
T18 construct: purchased Carna Biosciences
Text: as §1, §2

SGK = molecular target: T19, SGK (Homo sapiens, UniProt O00141); conditions: single inhibitor concentration
T19 construct: purchased Carna Biosciences
Text: as §1, §2

SYK = molecular target: T20, SYK (Homo sapiens, UniProt P43405); conditions: single inhibitor concentration
T20 construct: purchased Carna Biosciences
Text: as §1, §2

TIE2 = molecular target: T21, TIE2 (Homo sapiens, UniProt Q02763); conditions: single inhibitor concentration
T21 construct: purchased Carna Biosciences
Text: as §1, §2

TSSK1 = molecular target: T22, TSSK1 (Homo sapiens, UniProt Q9BXA7)
T22 construct: purchased Carna Biosciences
T22 sequence (Q9BXA7 whole entry): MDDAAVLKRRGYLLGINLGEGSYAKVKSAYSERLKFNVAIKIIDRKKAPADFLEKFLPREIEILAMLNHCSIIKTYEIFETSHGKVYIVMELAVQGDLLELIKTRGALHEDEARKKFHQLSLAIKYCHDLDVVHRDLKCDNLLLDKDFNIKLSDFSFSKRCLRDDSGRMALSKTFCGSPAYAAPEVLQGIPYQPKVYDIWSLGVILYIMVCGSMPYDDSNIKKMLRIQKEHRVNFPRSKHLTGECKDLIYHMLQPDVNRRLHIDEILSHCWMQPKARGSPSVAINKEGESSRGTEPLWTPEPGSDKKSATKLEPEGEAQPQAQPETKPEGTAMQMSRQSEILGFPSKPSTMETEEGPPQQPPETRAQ
Text: as §1, §2

YES = molecular target: T23, YES (Homo sapiens, UniProt P07947); conditions: for IC50: YES
T23 construct: purchased Carna Biosciences
T23 sequence (P07947 whole entry): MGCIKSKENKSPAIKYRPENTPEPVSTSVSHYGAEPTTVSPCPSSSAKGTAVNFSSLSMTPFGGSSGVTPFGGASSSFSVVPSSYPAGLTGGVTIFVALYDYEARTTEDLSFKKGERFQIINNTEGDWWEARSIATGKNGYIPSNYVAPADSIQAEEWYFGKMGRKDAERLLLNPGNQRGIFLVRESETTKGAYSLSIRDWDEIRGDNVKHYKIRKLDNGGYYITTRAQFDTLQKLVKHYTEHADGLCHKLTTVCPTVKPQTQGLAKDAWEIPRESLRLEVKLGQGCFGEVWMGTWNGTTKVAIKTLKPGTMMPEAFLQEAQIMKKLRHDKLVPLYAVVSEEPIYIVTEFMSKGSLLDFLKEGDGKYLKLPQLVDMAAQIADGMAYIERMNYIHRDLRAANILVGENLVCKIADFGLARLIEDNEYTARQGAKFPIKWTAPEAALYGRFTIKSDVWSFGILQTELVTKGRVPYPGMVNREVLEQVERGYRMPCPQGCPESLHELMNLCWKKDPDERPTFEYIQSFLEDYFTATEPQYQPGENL
Text: as §1, §2

p70S6K = molecular target: T24, p70S6K (Homo sapiens, UniProt P23443); conditions: single inhibitor concentration
T24 construct: purchased Carna Biosciences
T24 sequence (P23443 whole entry): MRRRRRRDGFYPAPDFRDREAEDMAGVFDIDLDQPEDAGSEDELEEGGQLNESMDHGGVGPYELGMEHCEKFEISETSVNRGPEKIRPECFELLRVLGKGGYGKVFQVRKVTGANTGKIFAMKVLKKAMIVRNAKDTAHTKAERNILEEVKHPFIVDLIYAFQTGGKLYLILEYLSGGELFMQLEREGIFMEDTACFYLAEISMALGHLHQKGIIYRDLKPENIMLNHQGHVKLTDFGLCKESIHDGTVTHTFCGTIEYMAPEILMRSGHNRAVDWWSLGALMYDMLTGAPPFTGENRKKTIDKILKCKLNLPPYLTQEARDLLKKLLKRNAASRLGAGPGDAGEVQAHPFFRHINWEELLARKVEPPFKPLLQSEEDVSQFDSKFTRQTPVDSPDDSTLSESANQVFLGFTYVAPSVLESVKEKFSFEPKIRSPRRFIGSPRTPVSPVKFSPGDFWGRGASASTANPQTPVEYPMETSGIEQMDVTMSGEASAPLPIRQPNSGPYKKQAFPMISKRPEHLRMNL
Text: as §1, §2

T1 sequence (P31749 whole entry): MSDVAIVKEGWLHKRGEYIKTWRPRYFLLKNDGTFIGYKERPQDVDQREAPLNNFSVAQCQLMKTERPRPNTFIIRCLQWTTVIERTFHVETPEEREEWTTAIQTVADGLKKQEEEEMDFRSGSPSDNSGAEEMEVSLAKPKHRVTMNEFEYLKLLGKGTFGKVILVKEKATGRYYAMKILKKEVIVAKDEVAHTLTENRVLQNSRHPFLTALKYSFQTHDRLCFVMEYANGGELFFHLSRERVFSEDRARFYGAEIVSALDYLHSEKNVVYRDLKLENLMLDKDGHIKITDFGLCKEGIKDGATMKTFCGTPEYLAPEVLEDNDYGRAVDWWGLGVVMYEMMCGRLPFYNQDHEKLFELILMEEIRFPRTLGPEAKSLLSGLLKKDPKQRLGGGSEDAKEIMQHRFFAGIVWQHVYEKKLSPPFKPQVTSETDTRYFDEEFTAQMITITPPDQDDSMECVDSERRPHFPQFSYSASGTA

inhibition at 0.2 µM (AKT1): -2.2%
inhibition at 0.2 µM (AMPKα1/β1/γ1): 15.3%
inhibition at 0.2 µM (CDK2/CycA2): 72.3%
inhibition at 0.2 µM (CHK1): 60.3%
inhibition at 0.2 µM (CSK): 32.4%
inhibition at 0.2 µM (CaMK4): -4.3%
inhibition at 0.2 µM (DYRK1B): 79.6%
inhibition at 0.2 µM (EGFR): 8.6%
inhibition at 0.2 µM (GSK3β): 31.5%
inhibition at 0.2 µM (IKKβ): -2.4%
inhibition at 0.2 µM (KDR): 79.3%
IC50 (LYNa): 36.6 nM
IC50 (LYNb): 43 nM
inhibition at 0.2 µM (PBK): 1.7%
IC50 (PDGFRα; Table 2, by Carna Biosciences): 10.1 nM
inhibition at 0.2 µM (PDGFRα; single inhibitor concentration): 101%
inhibition at 0.2 µM (PIM1): 10.4%
inhibition at 0.2 µM (PKD2): 7%
inhibition at 0.2 µM (ROCK1): 33%
inhibition at 0.2 µM (SGK): 1.4%
inhibition at 0.2 µM (SYK): 40.6%
inhibition at 0.2 µM (TIE2): 8.2%
IC50 (TSSK1; Table 2, by Carna Biosciences): 28.6 nM
inhibition at 0.2 µM (TSSK1; single inhibitor concentration): 88.9%
selectivity for ITK over YES (YES): about 10 fold
IC50 (YES; 1 mM ATP, Km ATP 13 μM): 5.9 nM
IC50 (YES; ATP concentration at approximately the Km for ATP): 0.993 nM
IC50 (YES; Table 2, by Carna Biosciences): 0.993 nM
inhibition at 0.2 µM (p70S6K): 7.6%
Structure (SMILES): CC(C)C(C)CNCc1ccc2c(c1)[nH]/c(=N\C(=O)c1ccc(C3=CN=NC3)s1)n2CC(C)(C)O (centres unmarked) [BI 10N]
